Results on nine compounds are retold here after paper PMC8294803, “A Roadmap to the Structure-Related Metabolism Pathways of Per- and Polyfluoroalkyl Substances in the Early Life Stages of Zebrafish (Danio rerio)” (Environmental Health Perspectives, 2021).

Data set [1] concerns zebrafish larvae. In words: Bioconcentration factors (BCF) of PFAS in zebrafish larvae. To be noted: zebrafish larvae, 120 hpf, three replicates; for BCF 0.5µM: 0.5 µM exposure; for BCF 5µM: 5 µM exposure. The procedure: Zebrafish embryos were collected immediately after spawning, within 1 h, and subsequently transferred to 24-well plates with 1mL of facility water ( 0.036g sea salt, 0.15g sodium bicarbonate in 2L of reverse osmosis water). […] Three well replicates on the same plate were conducted for each concentration of individual chemical. […] Seven batches of experiments were performed to test all 74 PFAS. DMSO controls were incorporated in each batch of exposure experiments. Three replicates were performed for each treatment group, and 20 embryos were used for each replicate. […] For daily replenishment, 2.5mL of old exposure medium were replaced with freshly prepared medium every 24 h from 24 to 96 h post fertilization (hpf). Hatched or dead embryo numbers were recorded every 24 hpf, after which dead embryos were discarded from the growth media. Dead embryos or unhatched embryos were not used for PFAS measurement because the metabolism of PFAS might have been impacted. Zebrafish larvae collection occurred at 120 hpf. First, the larvae were anesthetized by cooling the plate in ice water (0–4°C) for ∼20 min . Then 8–15 larvae in each well were transferred into 1.5-mL tubes. Exposure media was carefully removed, and then the larvae were weighed (wet weight) after blotting excess water with a paper towel. […] Samples were stored at −80 °C until further chemical analysis was performed. Survival rate and hatching rate were calculated by summarizing all the documented data from the whole treatment duration. […] The exposure experiment of PFOSA was repeated using the same procedure as described above.
Each sample was spiked with 2μL of 0.2μg/mL mass-labeled PFAS mixture. Following this, 500μL of dichloromethane/methanol (2:1, vol/vol) was added to each sample for PFAS extraction. Larvae were then homogenized via ultrasonic probe, followed by 30 min of shaking and 30 min of sonication. Each sample was centrifuged at 14,000×g for 5 min, after which the supernatant was transferred to new tubes. Extraction was repeated once and the two supernatants were combined, evaporated under nitrogen flow, and reconstituted in 200μL of methanol for MS analysis.
Three microliters of each zebrafish extract was applied to a C18 column ( 1.5μm; 2.1mm×50mm; Thermo Scientific) and analyzed using a Vanquish ultra-HPLC system (Thermo Fisher Scientific) coupled to a Q Exactive high-resolution mass spectrometer (Thermo Fisher Scientific). The sampler and column compartments were maintained at 4°C and 40°C, respectively. The aqueous mobile phase solution (A) consisted of water, whereas the organic mobile phase solution (B) consisted of acetonitrile. […] MS data was acquired in full scan mode (100–1000 m/z, 70,000 mass resolution, 3×10^6 maximum ions collected per 100 ms), and tandem MS (MS/MS) data was recorded by all-ion fragmentation (AIF) mode. Negative and positive ion modes were carried out simultaneously at a 10-min method duration. […] An overview of the analyses conducted on the various PFAS is available in Table S2.
GraphPad Prism (version 7.0.4; GraphPad Software) and R studio (version 1.1.456; R Studio Inc.) software was used, and an ANOVA with Dunnett tests was employed to evaluate the statistical significance of the percentage hatched and mortality rate. Exponential regressions were used to determine the relationships between bioconcentration factor (BCF) and binding affinities ( Kd ) to L-FABP.

Data set [2] has as its target liver fatty acid binding protein (L-FABP). Set-up: method as in Yang et al. 2020. The conditions noted are these: ref Yang et al. 2020; read-out: Kd (μM), L-FABP binding affinity; cited from earlier work.
Data set [3] relates to zebrafish embryos. The conditions noted are these: for pericardial oedemata, Mean / spinal curvature, Mean / tail dysplasia, Mean: 5μM through 120 hpf, malformation rate; for Mortality (%): 5 µM, exposure through 120 hpf.

“And” between values parts separate entries of the source, which are not always exact repeats. Identical values can stand only once.

For the compound `O=S(=O)([O-])C(F)(F)C(F)(F)C(F)(F)C(F)(F)C(F)(F)C(F)(F)F.[K+]` [compound 26, Potassium perfluorohexanesulfonate], in data set [1], the “BCF 0.5µM” value is given as 55.2382 L/kg and the “BCF 5µM” value came to 30 ± 0.71 L/kg. For the same compound, the Kd in data set [2] was 11.2 µM. Further, in data set [3], the “pericardial oedemata, Mean” value is 0.00%; the “spinal curvature, Mean” value turned out to be 0.00%; the “tail dysplasia, Mean” value was determined as 0.00%; the “Mortality (%)” value amounted to 3.3%.

With `O=C(O)C(F)(F)C(F)(F)C(F)(F)OC(F)(F)F` [compound 28, Perfluoro(4-methoxybutanoic) acid], in data set [1], the “BCF 0.5µM” value is 5.238 L/kg and the “BCF 5µM” value was 1.4 ± 0.17 L/kg. Further, in data set [2], the Kd was 815 µM. Moreover, in data set [3], the “pericardial oedemata, Mean” value came out at 0.00%; the “spinal curvature, Mean” value is given as 2.22%; the “tail dysplasia, Mean” value is on record as 0.00%; the “Mortality (%)” value was 1.1%.

For `O=C(O)C(F)(F)OC(F)(F)C(F)(F)OC(F)(F)C(F)(F)OC(F)(F)C(F)(F)C(F)(F)C(F)(F)F` [compound 34, Perfluoro-3,6,9-trioxatridecanoic acid], in data set [1], the “BCF 0.5µM” value was 585 ± 174 L/kg and 584.908 L/kg; the “BCF 5µM” value came to 93 ± 19 L/kg. Besides, the Kd in data set [2] is 8.22 µM. Further, in data set [3], the “pericardial oedemata, Mean” value was determined as 0.00%; the “spinal curvature, Mean” value stood at 0.00%; the “tail dysplasia, Mean” value is 0.00%; the “Mortality (%)” value is given as 10%.

As to `OCC(F)(F)C(F)(F)C(F)(F)CO` [compound 35, Hexafluoroamylene glycol], in data set [1], the “BCF 0.5µM” value stood at 1.573 L/kg and the “BCF 5µM” value is 1.1 ± 0.09 L/kg. Further, in data set [3], the “pericardial oedemata, Mean” value was determined as 1.11%; the “spinal curvature, Mean” value is 4.44%; the “tail dysplasia, Mean” value amounted to 0.00%; the “Mortality (%)” value worked out at 0%.

With `O=S(=O)(O)C(F)(F)C(F)(F)C(F)(F)C(F)(F)C(F)(F)C(F)(F)C(F)(F)C(F)(F)F` [compound 46, Perfluorooctanesulfonic acid], in data set [1], the “BCF 0.5µM” value is given as 270.546 L/kg and the “BCF 5µM” value amounted to 91 ± 10 L/kg. In addition, in data set [2], the Kd was 8.1 µM. In data set [3], the “pericardial oedemata, Mean” value stood at 0.00%; the “spinal curvature, Mean” value amounted to 0.00%; the “tail dysplasia, Mean” value stood at 0.00%; the “Mortality (%)” value turned out to be 2.2%.

Regarding `OCC(F)(F)C(F)(F)C(F)(F)C(F)F` [compound 48, 1H,1H,5H-Perfluoropentanol], in data set [2], the Kd is 916 µM. In data set [3], the “pericardial oedemata, Mean” value came to 4.44%; the “spinal curvature, Mean” value is on record as 6.67%; the “tail dysplasia, Mean” value turned out to be 1.11%; the “Mortality (%)” value is 1.1%.

`OCC(F)(F)C(F)(F)C(F)(F)C(F)(F)C(F)(F)C(F)(F)C(F)(F)C(F)(F)C(F)(F)C(F)(F)C(F)(F)F` [compound 50, 11:1 Fluorotelomer alcohol]: in data set [1], the “BCF 5µM” value is given as 1.7 ± 0.23 L/kg. Also, in data set [3], the “pericardial oedemata, Mean” value came to 1.11%; the “spinal curvature, Mean” value was determined as 0.00%; the “tail dysplasia, Mean” value stood at 1.11%; the “Mortality (%)” value worked out at 1.1%.

Consider `O=C(O)C(F)(F)OC(F)(F)C(F)(F)OC(F)(F)F` [compound 54, Perfluoro-3,6-dioxaheptanoic acid], for which, in data set [1], the “BCF 0.5µM” value turned out to be 2.103 L/kg and the “BCF 5µM” value amounted to 2.0 ± 0.40 L/kg. Further, the Kd in data set [2] is 252 µM. For the same compound, in data set [3], the “pericardial oedemata, Mean” value stood at 1.11%; the “spinal curvature, Mean” value is given as 0.00%; the “tail dysplasia, Mean” value is listed as 1.11%; the “Mortality (%)” value was found to be 2.2%.

As for `O=S(=O)([O-])C(F)(F)C(F)(F)C(F)(F)C(F)(F)F.[K+]` [compound 57, Potassium perfluorobutanesulfonate], in data set [1], the “BCF 0.5µM” value came out at 4.038 L/kg and the “BCF 5µM” value is on record as 3.0 ± 0.54 L/kg. In addition, in data set [2], the Kd is 125 µM. Also, in data set [3], the “pericardial oedemata, Mean” value came out at 1.11%; the “spinal curvature, Mean” value is recorded as 0.00%; the “tail dysplasia, Mean” value was determined as 0.00%; the “Mortality (%)” value came out at 2.2%.
